Reference: patent US20220312768A1, “COMBINATIONS OF AGROCHEMICALS WITH METABOLIC INHIBITORS” (THE BOARD OF TRUSTEES OF THE UNIVERSITY OF ARKANSAS, priority 2021, published 2022)
Where “and” joins values, the source holds several entries; their conditions need not be identical. Identical values can stand only once. Entries after “also recorded” stand apart in the source; their conditions may differ.

Legend:
[1] = system: Palmer amaranth; test: Greenhouse experiment, GST blockers added to KFD-581-01, Palmer amaranth control and biomass reduction; assay type: in vivo, Amaranthus palmi; conditions: for Palmer amaranth control, relative effectiveness of treatments: 7 DAA; for Palmer amaranth control versus KFD-581-01 applied alone / Reduction in above-ground biomass compared to the untreated check: 14 DAA, higher rates + KFD-581-01 300 g ai/ha
[2] = system: Palmer amaranth; parameters: species or system Amaranthus palmeri; conditions: in vivo
[3] = all rates (17, 34, 67 g ai/ha) + KFD-581-01 300 g ai/ha

| SMILES | Palmer amaranth control, relative effectiveness of treatments [1, 3] | Palmer amaranth control versus KFD-581-01 applied alone [1] | Efficacy at the highest rate versus low or mid rates ([1]; 67 g ai/ha versus 17 or 34 g ai/ha, + KFD-581-01 300 g ai/ha) | Reduction in above-ground biomass compared to the untreated check [1] | Palmer amaranth control, relative effectiveness of treatments ([1]; two highest rates (34 and 67 g ai/ha) + KFD-581-01 300 g ai/ha) | Palmer amaranth control (%) [2] |
| --- | --- | --- | --- | --- | --- | --- |
| O=C(O)/C=C/c1ccc(O)c(O)c1 [caffeic acid] | most effective; also recorded: more effective than any rate of curcumin or NBD-CL | increased levels of Palmer amaranth control | decreased efficacy at the highest rate | – | – | – |
| O=c1c(O)c(-c2ccc(O)c(O)c2)oc2cc(O)cc(O)c12 [quercetin] | most effective; also recorded: more effective than any rate of curcumin or NBD-CL | – | – | largest reductions in biomass | – | – |
| O=C(O)[C@H]1O[C@@H](Oc2cc3oc(-c4ccccc4)cc(=O)c3c(O)c2O)[C@H](O)[C@@H](O)[C@@H]1O [baicalin] | – | increased levels of Palmer amaranth control | – | – | most effective; also recorded: more effective than any rate of curcumin or NBD-CL | – |
| CP(=O)(O)CCC(N)C(=O)O (centres unmarked) [Glufosinate, 2-amino-4-[hydroxy(methyl)phosphoryl]butanoic acid] | – | – | – | – | – | 74% and 60% and 74b % and 60c % |
| O=c1oc2c(O)c(O)cc3c(=O)oc4c(O)c(O)cc1c4c23 [ellagic acid] | most effective; also recorded: more effective than any rate of curcumin or NBD-CL | increased levels of Palmer amaranth control | – | largest reductions in biomass | – | – |
